Source: US11021444B2, “Antiviral compounds” (priority 2013, dated 2021)
Read-outs that look alike come from different tables or passages of the source.

Experiments:
[1] = target: recombinant RSV complex (Human respiratory syncytial virus A, UniProt P28887); test: RSV Polymerase Inhibition Assay; type: biochemical
Outline: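 Inhibition measured as reduced incorporation of radiolabel into RNA products, detected by scintillation counting. Reactions: recombinant RSV complex (10 nM), RNA oligonucleotides, Tris-HCl pH 7.5, 6 mM MgCl2, inhibitor titration, 2 h at 30 °C, EDTA stop.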

[2] = system: HEp-2 cells; test: Cytotoxicity Determination (CCK-8, without addition of virus); type: cell-based
Outline: (§1)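 Cytotoxicity was measured by CCK-8 after 3-4 hours at 37 °C, following 5 days of uninfected exposure at 37 °C and 5% CO2. Compounds ran as duplicate 7-point 1/2 dilutions starting at 100 μM, with 1% final DMSO. HEp-2 cells had been plated at 1,500/well the day before.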

[3] = system: RSV replicon; test: microbe, parasite or virus in culture; type: cell-based; conditions: human respiratory syncytial virus, read-out: EC50, the concentration of the drug required for reducing RSV replicon RNA by 50%
Experimental: The Renilla Luciferase Assay System (Promega, Cat. #E2820) was used to measure anti-RSV replicon activity. […] Luminescence was recorded using a Perkin Elmer multilabel counter Victor3V. EC50, the concentration of the drug required for reducing RSV replicon RNA by 50% in relation to the untreated cell control value, was calculated from the plot of percentage reductions of the optical density (OD) value against the drug concentrations using the Microsoft Excel forecast function.

[4] = system: Respiratory Syncytial Virus (RSV) long strain; test: microbe, parasite or virus in culture; type: cell-based; conditions: human respiratory syncytial virus, Tables A and B list compounds by EC50 band
Outline: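 CPE-reduction format: viability measured colorimetrically with CCK-8 (450 nm, 630 nm reference) after 3-4 h, following 5-day infection at 37 °C, 5% CO2. Cells were HEp-2; inoculum 100 TCID50/well; duplicate 9-point 1/3 series starting at 100 μM or 1 μM.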

[5] = Cytotoxicity Determination (CCK-8, without addition of virus); type: cell-based; conditions: human, 50% cytotoxicity concentration (CC50)
Outline: as §1

[6] = HEp-2, 120 h, read-out: 50% effective concentration (EC50), HEp-2 cells infected with RSV long strain, 5 days, CCK-8 readout
[7] = 120 h, read-out: 50% effective concentration (EC50), HEp-2 cells infected with RSV long strain, 5 days, CCK-8 readout

Chain of recombinant RSV complex (P28887 whole entry): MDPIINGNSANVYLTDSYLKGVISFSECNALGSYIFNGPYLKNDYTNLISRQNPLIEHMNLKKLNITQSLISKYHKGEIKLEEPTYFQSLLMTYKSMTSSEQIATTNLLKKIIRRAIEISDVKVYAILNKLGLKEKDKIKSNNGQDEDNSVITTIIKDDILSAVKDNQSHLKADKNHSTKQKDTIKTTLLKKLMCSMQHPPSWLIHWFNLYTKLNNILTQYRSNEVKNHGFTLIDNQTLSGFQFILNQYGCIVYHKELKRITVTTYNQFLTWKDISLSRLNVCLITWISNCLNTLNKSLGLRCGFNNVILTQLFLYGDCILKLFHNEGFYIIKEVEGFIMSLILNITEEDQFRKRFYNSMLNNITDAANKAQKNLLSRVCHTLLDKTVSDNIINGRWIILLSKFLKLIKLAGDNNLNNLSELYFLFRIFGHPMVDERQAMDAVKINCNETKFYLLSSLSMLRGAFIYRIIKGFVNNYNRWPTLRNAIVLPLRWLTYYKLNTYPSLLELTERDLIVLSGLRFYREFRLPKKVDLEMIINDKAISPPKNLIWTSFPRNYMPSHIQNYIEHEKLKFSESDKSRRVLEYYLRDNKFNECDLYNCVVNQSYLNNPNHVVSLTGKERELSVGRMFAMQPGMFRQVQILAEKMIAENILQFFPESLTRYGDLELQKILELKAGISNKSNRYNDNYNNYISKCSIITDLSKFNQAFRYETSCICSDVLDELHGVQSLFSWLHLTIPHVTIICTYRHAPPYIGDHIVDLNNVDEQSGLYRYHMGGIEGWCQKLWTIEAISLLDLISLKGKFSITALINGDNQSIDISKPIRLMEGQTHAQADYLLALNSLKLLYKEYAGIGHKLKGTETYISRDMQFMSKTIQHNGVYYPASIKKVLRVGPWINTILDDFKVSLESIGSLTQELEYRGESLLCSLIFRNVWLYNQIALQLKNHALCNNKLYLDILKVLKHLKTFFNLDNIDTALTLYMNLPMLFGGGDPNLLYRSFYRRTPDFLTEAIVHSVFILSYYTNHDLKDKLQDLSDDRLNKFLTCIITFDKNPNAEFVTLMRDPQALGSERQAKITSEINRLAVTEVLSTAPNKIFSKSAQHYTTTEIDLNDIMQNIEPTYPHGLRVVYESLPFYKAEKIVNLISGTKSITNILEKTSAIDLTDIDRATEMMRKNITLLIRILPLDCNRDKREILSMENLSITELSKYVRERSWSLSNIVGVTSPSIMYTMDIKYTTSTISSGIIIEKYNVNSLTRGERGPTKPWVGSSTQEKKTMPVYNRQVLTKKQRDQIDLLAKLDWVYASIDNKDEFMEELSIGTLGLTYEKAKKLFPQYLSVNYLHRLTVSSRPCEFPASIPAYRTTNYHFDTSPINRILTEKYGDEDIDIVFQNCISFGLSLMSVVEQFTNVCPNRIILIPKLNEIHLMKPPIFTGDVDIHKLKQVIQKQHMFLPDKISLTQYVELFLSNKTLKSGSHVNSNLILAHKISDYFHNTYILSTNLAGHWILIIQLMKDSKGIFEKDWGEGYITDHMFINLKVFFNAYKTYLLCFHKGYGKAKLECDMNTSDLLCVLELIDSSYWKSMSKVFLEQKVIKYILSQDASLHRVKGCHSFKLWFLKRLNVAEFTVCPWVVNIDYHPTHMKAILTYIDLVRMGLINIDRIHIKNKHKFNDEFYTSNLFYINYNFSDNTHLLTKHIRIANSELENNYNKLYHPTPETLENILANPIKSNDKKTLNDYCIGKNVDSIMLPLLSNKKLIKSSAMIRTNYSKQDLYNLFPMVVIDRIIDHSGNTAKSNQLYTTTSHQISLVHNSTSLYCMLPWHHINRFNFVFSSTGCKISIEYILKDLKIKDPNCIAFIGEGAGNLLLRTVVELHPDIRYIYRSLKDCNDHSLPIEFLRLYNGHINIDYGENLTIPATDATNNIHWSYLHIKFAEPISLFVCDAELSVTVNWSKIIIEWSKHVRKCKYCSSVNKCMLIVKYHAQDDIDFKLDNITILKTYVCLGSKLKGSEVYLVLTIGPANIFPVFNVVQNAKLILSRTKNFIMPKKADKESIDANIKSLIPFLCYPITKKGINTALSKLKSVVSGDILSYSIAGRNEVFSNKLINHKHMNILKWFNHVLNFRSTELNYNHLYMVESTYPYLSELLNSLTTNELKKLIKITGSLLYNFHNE
Chain of recombinant RSV complex (P03421 whole entry, further chain): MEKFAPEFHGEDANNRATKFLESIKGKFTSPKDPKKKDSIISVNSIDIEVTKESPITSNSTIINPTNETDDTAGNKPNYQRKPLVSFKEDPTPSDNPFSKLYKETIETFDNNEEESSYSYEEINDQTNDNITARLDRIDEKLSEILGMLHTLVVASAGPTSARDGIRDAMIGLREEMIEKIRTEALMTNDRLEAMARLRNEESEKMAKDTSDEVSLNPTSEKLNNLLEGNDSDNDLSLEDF

| Compound | IC50 [1] [nM] | CC50 ([2]; human, 5 days) [µM] | EC50 [3] [nM] | EC50 [4, 6] [nM] | CC50 [2] [µM] | CC50 at 5 days [5] [µM] | EC50 [4, 7] [nM] |
| --- | --- | --- | --- | --- | --- | --- | --- |
| CCC(O)(CNC(=O)c1ccc(OCCF)c(OC)c1)c1ccc(OC)c(-c2ccc(F)c(Cl)c2)n1 (single isomer, unassigned) [Compound 122b] | < 10000 | 10 to 100 |  |  |  |  |  |
| COc1cc(C(=O)NCC(O)(c2ccc(OC)c(-c3ccc(F)c(Cl)c3)n2)C(F)(F)F)ccc1OCC(N)=O (single isomer, unassigned) [Compound 239] |  | 10 to 100 | < 1000 |  |  |  |  |
| COc1cc(C(=O)NCC(O)(c2cc(C(C)(N)CF)cc(-c3ccc(F)cc3)n2)C(F)(F)F)ccc1OCC(N)=O (single isomer, unassigned) [Compound 655] | < 1000 | > 100 |  |  |  |  |  |
| COc1cc(C(=O)NCC(O)(c2cc(C(C)(N)CF)cc(-c3ccc(F)cc3)n2)C(F)(F)F)ccc1OCC(N)=O (single isomer, unassigned) [Compound 656] |  | 10 to 100 |  | < 1000 |  |  |  |
| COc1cc(C(=O)NCC(O)(c2ccc(OC)c(-c3ccc(F)c(Cl)c3)n2)C2CC2)ccc1OCCO (stereo not drawn) [Compound 243] |  | 10 to 100 |  |  |  |  |  |
| COc1ccc(C(O)(CNC(=O)c2ccc(O[C@H]3CCNC3=O)c(Cl)c2)C(F)(F)F)cc1-c1ccc(F)c(Cl)c1 (stereo partly drawn) [Compound 260] |  |  |  |  | 10 to 100 |  |  |
| COc1cc(C(=O)NCC(O)(c2ccc(OC)c(-c3ccc(F)c(Cl)c3)n2)C(F)F)ccc1OCC(N)=O (stereo not drawn) [Compound 442] | < 1000 | 10 to 100 | < 1000 | < 1000 |  |  |  |
| COc1cc(C(=O)NCC(O)(c2ccc(OC)c(-c3ccc(F)c(Cl)c3)n2)C(F)F)ccc1OCC(N)=O (stereo not drawn) [Compound 447] |  | > 100 |  |  |  |  |  |
| COc1cc(C(=O)NCC(O)(c2cc(C3(N)CC3)cc(-c3ccc(F)cc3)n2)C(F)(F)F)ccc1OC[C@@H](C)O (stereo partly drawn) [Compound 598] | < 1000 |  | < 1000 | < 1000 |  | 10 to 100 |  |
| COc1cc(C(=O)NCC(O)(c2cc(C(C)(C)NC(C)=O)cc(-c3ccc(F)cc3)n2)C(F)(F)F)ccc1OCCO (stereo not drawn) [Compound 611] | < 1000 |  | < 1000 | < 1000 |  | > 100 |  |
| COc1cc(C(=O)NCC(O)(c2cc(C(C)(C)NC(C)=O)cc(-c3ccc(F)c(Cl)c3)n2)C(F)(F)F)ccc1OCC(N)=O (stereo not drawn) [Compound 612] | < 1000 |  | < 1000 | < 1000 |  | > 100 |  |
| COc1cc(C(=O)NCC(O)(c2cc(C(C)(N)CF)cc(-c3ccc(F)cc3)n2)C(F)(F)F)ccc1OC[C@@H](C)O (stereo partly drawn) [Compound 614] | < 1000 |  | < 1000 | < 1000 |  | 10 to 100 |  |
| COc1cc(C(=O)NCC(O)(c2cc(C(C)(N)CF)cc(-c3ccc(F)cc3)n2)C(F)(F)F)ccc1OCC(N)=O (stereo not drawn) [Compound 615] | < 1000 |  | < 1000 | < 1000 |  | > 100 |  |
| COc1cc(C(=O)NCC(O)(c2cc(C(C)(C)NC(C)=O)cc(-c3ccc(F)cc3)n2)C(F)(F)F)ccc1OCC(N)=O (stereo not drawn) [Compound 621] | < 1000 |  | < 1000 | < 1000 |  | > 100 |  |
| COc1cc(C(=O)NCC(O)(c2cc(C(C)(C)N)cc(-c3ccc(C#N)cc3)n2)C(F)(F)F)ccc1OCCO (stereo not drawn) [Compound 623b] | < 1000 |  | < 1000 | < 1000 |  | > 100 |  |
| COc1cc(C(=O)NC[C@](O)(c2cc(C(C)(C)N)cc(-c3ccc(C#N)cc3)n2)C(F)(F)F)ccc1OC[C@@H](C)O [Compound 624b] | < 1000 |  | < 1000 | < 1000 |  | > 100 |  |

| Compound | IC50 [1] [nM] | CC50 ([2]; human, 5 days) [µM] | EC50 [3] [nM] | EC50 [4, 6] [nM] | CC50 [2] [µM] | CC50 at 5 days [5] [µM] | EC50 [4, 7] [nM] |
| --- | --- | --- | --- | --- | --- | --- | --- |
| COc1cc(C(=O)NC[C@@](O)(c2cc3c(c(-c4ccc(F)cc4)n2)OC[C@@]3(C)N)C(F)(F)F)ccc1OC[C@@H](C)O [Compound 630] | < 1000 |  | < 1000 |  |  | 10 to 100 | < 1000 |
| COc1cc(C(=O)NC[C@](O)(c2cc3c(c(-c4ccc(F)cc4)n2)OCC3(C)CN)C(F)(F)F)ccc1OCCO (stereo partly drawn) [Compound 633b] | < 1000 |  | < 1000 | < 1000 |  | 10 to 100 |  |
| COc1cc(C(=O)NCC(O)(c2cc(C(C)(C)N)cc(-c3ccc(F)cc3)n2)C2CC2)ccc1OCCO (stereo not drawn) [Compound 634] | < 1000 |  | < 1000 | < 1000 |  | > 100 |  |
| COc1cc(C(=O)NCC(O)(c2cc3c(c(-c4ccc(F)cc4)n2)OCC3(C)N)C(F)(F)F)cc2cccnc12 (stereo not drawn) [Compound 635] | < 1000 |  | < 1000 | < 1000 |  | 10 to 100 |  |
| COc1cc(C(=O)NCC(O)(c2cc(C(C)(C)N)cc(-c3ccc(F)c(Cl)c3)n2)C(F)(F)F)ccc1OCS(N)(=O)=O (stereo not drawn) [Compound 637] | < 1000 |  | < 1000 | 1000 to 50000 |  | 10 to 100 |  |
| COc1cc(C(=O)NCC(O)(c2cc3c(c(-c4ccc(F)c(Cl)c4)n2)OCC3(C)N)C(F)(F)F)ccc1OCCO (stereo not drawn) [Compound 638] | < 1000 |  | < 1000 | < 1000 |  | 10 to 100 |  |
| COc1cc(C(=O)NCC(O)(c2cc3c(c(-c4ccc(Cl)cc4)n2)OCC3(C)N)C(F)(F)F)ccc1OCCO (stereo not drawn) [Compound 640] | < 1000 |  | < 1000 |  |  | 10 to 100 | < 1000 |
| COc1cc(C(=O)NCC(O)(c2cc3c(c(-c4ccc(F)cc4)n2)OCC3(C)N)C(F)(F)F)cc2ccc(=O)[nH]c12 (stereo not drawn) [Compound 642] | < 1000 |  | < 1000 | < 1000 |  | 10 to 100 |  |
| COc1cc(C(=O)NCC(O)(c2cc(C(C)(C)N)cc(-c3ccc(F)cc3)n2)C(F)(F)F)cnc1OCCO (stereo not drawn) [Compound 643] | < 1000 |  | < 1000 | < 1000 |  | > 100 |  |
| CC(C)(N)c1cc(-c2ccc(F)cc2)nc(C(O)(CNC(=O)c2ccc(OC3CC3)c(CO)c2)C(F)(F)F)c1 (stereo not drawn) [Compound 644] | < 1000 |  | < 1000 | < 1000 |  | 10 to 100 |  |
| COc1cc(C(=O)NCC(O)(c2cc3c(c(-c4ccc(C(F)(F)F)cc4)n2)OCC3(C)N)C(F)(F)F)ccc1OCCO (stereo not drawn) [Compound 645] | < 1000 |  | < 1000 | < 1000 |  | 10 to 100 |  |
| COc1cc(C(=O)NCC(O)(c2cc3c(c(-c4ccc(Cl)cc4)n2)OCC3(C)N)C(F)(F)F)ccc1CO[C@@H](C)O (stereo partly drawn) [Compound 646] | < 1000 |  | < 1000 | < 1000 |  | 10 to 100 |  |
| COc1cc(C(=O)NCC(O)(c2cc([C@]3(C)CCN3)cc(-c3ccc(F)cc3)n2)C(F)(F)F)ccc1OCCO (stereo partly drawn) [Compound 650] | < 1000 |  | < 1000 |  |  | 10 to 100 | < 1000 |
| COc1cc(C(=O)NC[C@@](O)(c2cc3c(c(-c4ccc(F)cc4)n2)OCC3(N)CO)C(F)(F)F)ccc1OC1CC1 (stereo partly drawn) [Compound 653] | < 1000 |  | < 1000 | < 1000 |  | > 100 |  |
| COc1cc(C(=O)NCC(O)(c2cc3c(c(-c4ccc(F)c(F)c4)n2)OCC3(C)N)C(F)(F)F)ccc1OCCO (stereo not drawn) [Compound 663] | < 1000 |  | < 1000 | < 1000 |  | 10 to 100 |  |
| COc1cc(C(=O)NCC(O)(c2cc3c(c(-c4ccc(F)c(C(F)(F)F)c4)n2)OCC3(C)N)C(F)(F)F)ccc1CO[C@@H](C)O (stereo partly drawn) [Compound 665] | < 1000 |  | < 1000 | < 1000 |  | 10 to 100 |  |
